Experimental data reported in article PMC8037814, “Polymorphic Characterization, Pharmacokinetics, and Anti-Inflammatory Activity of Ginsenoside Compound K Polymorphs” (Molecules, 2021).
Several values for one entry are separate records, joined by “and”; a condition that tells them apart may be missing. Equal values may be shown once. Read-outs that look alike come from different tables or passages of the source.

Key:
[1] = tested on: carrageenan-induced acute paw inflammation; assay: Paw swelling test induced by carrageenan in rats; assay type: in vivo, Sprague-Dawley rats; set-up: paw volume: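 right hind paw volume measured with a plethysmometer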; conditions: for paw volume / paw edema: mean±SD of 6 rats; for edema inhibition: versus model group
Protocol: Rats were divided into 11 groups of six animals each (sex in half): the normal group, the model group, indomethacin group (1 mg/kg), and form I, II, III, IV groups (each form set 10 mg/kg and 20 mg/kg groups, respectively). Indomethacin and CK were ground and suspended in 0.5% CMC-Na solution. […] The same volume of saline was injected into the normal group. […] Paw edema and inhibitory rate were calculated as the following formula, and the differences among groups were compared with the t-test. Paw edema (%) = (Vn − V0)/V0 × 100%. Vn: paw volume at different time intervals after carrageenan injection. V0: paw volume before carrageenan injection. Inhibitory rate (%) = (Em − Ee)/Em × 100%. Em: paw edema of the model group. Ee: paw edema of the experimental group.

[2] = Pharmacokinetics after oral administration of CK polymorphs in rats (20 mg/kg); assay type: in vivo, Sprague-Dawley rats; conditions: for Fabs (absolute bioavailability): p.o. 20 mg/kg vs i.v. 10 mg/kg, dose-adjusted AUC ratio; for Tmax / t1/2z / AUC(0–t) / AUC(0–∞) / CLz/F / Cmax / Vz/F: 20 mg/kg
[3] = DSC thermal analysis of CK polymorphs; assay type: physicochemical; conditions: 20 K/min from 20 to 400 °C, dry nitrogen flow
Protocol: DSC measurements were performed on a DSC204 Phoenix calorimeter (NETZSCH, Selb, Germany) with a heating rate of 20 K/min from 20 to 400 °C. The dry nitrogen flow was about 50 mL/min. Data were analyzed using NETZSCH analysis software.

[4] = Pharmacokinetics after oral administration of CK polymorphs in rats (20 mg/kg); assay type: in vivo, Sprague-Dawley rats; conditions: p.o. 20 mg/kg, individual rats 1-3
Protocol: All samples were analyzed with a triple quadrupole LC-MS/MS (API 4000 LC-MS/MS, AB Sciex, Framingham, MA, USA) coupled with an Agilent 1200 HPLC system (Agilent Technologies, Palo Alto, CA, USA). The MS was equipped with an electrospray system (ESI). The N2 gas temperature and ion-spray voltage were set to 550 °C and 4.5 kV, respectively. CK was measured in multiple reaction monitoring (MRM) mode using a negative electrospray ionization source at m/z 667.4 → 621.2 for CK (CID 25.6 v) and m/z 271.2 → 228.8 for internal standard (IS, (E)-5-(4-fluorostyryl)-2-isopropylbenzene-1,3-diol, Welichem Biotech Inc., Wayburne Drive Burnaby, BC, Canada) (CID 28.3 v) with a dwell time of 0.1 s.
Rats were divided randomly into 5 groups of six animals each (sex in half) and given 7 days to acclimatize to the facility before the experiments began. The four forms of CK were suspended in 0.5% sodium carboxymethyl cellulose (CMC-Na) solution and orally administered to rats at a dose of 20 mg/kg. A CK solution in a mixed solvent of dimethyl sulfoxide (DMSO)/castor oil/physiologic saline (3:5:92, v/v) was intravenously administered to the remaining group via the tail vein at a dose of 10 mg/kg. Blood samples were collected by retro-orbital puncture at the following times: 0.167, 0.333, 0.667, 1, 2, 3, 4, 6, 9, 12, and 24 h for the oral administration, and at 0.0083, 0.05, 0.133, 0.25, 0.5, 1, 2, 4, 6, and 9 h for the intravenous administration. Plasma samples were obtained by centrifuging a heparinized blood tube at 4000 rpm for 5 min and then stored at −70 °C until analysis.
The procedure for drug extraction from plasma samples was as follows: 0.2 mL acetonitrile, 0.2 mL plasma sample, and 10 μL IS (1 µg/mL) were added into a 1.5 mL Eppendorf-type tube. This mixture was vortexed for 1 min and then treated with 0.8 mL of methyl tert-butyl ether (MTBE) to precipitate the plasma proteins. After a mechanical vortex for 1 min and subsequent centrifugation (4000 rpm, 5 min), 0.8 mL of the supernatant was transferred and blow-dried with N2 at 40 °C in a water bath. Finally, the residue was dissolved in 120 μL of mobile phase, and then 10 μL was subjected to HPLC for analysis. […] Intra- and inter-day precision and accuracy never exceeded 15% by analyzing six replicate samples.
The CK pharmacokinetic parameters in rats, including the area under the curve (AUC(0–t) and AUC(0–∞)), mean residence time (MRT(0–t) and MRT(0–∞)), maximum concentration (Cmax), time to maximum concentration (Tmax), half-life (t1/2), apparent distribution volume (V), and total plasma clearance (CL), were derived from plasma concentration-time curves by using non-compartmental analysis (NCA) with DAS 2.0 software (Drug And Statistics, Mathematical Pharmacology Professional Committee of China, Shanghai, China). The absolute bioavailability (Fabs) was calculated from the dose-adjusted ratio of AUCp.o. to AUCi.v.. One-way analysis of variance (ANOVA) by SPSS 11.5 (SPSS Inc., Chicago, IL, USA) was conducted to compare the primary PK parameters.

[5] = 1 mg/kg p.o. qd 3 days, 3h after carrageenan
[6] = 1 mg/kg p.o. qd 3 days, 4h after carrageenan
[7] = 1 mg/kg p.o. qd 3 days, 5h after carrageenan
[8] = 1 mg/kg p.o. qd 3 days, 6h after carrageenan
[9] = female rats, p.o. 20 mg/kg, individual rats 1-3
[10] = female rats, p.o. 20 mg/kg, mean ± SD (n = 3)
[11] = male rats, p.o. 20 mg/kg, mean ± SD (n = 3)
[12] = 10 mg/kg p.o. qd 3 days, 3h after carrageenan, listed as From IV
[13] = 10 mg/kg p.o. qd 3 days, 4h after carrageenan, listed as From IV
[14] = 10 mg/kg p.o. qd 3 days, 5h after carrageenan, listed as From IV
[15] = 10 mg/kg p.o. qd 3 days, 6h after carrageenan, listed as From IV
[16] = 20 mg/kg p.o. qd 3 days, 3h after carrageenan, listed as From IV
[17] = 20 mg/kg p.o. qd 3 days, 4h after carrageenan, listed as From IV
[18] = 20 mg/kg p.o. qd 3 days, 5h after carrageenan, listed as From IV
[19] = 20 mg/kg p.o. qd 3 days, 6h after carrageenan, listed as From IV

COc1ccc2c(c1)c(CC(=O)O)c(C)n2C(=O)c1ccc(Cl)cc1 [Indomethacin, indomethacin, reference compound]
paw volume ([1]; 1 mg/kg p.o. qd 3 days, 0h (before carrageenan)): 1.60±0.13
paw edema [1, 5]: 48.00±18.21%
paw volume [1, 5]: 2.35±0.15
edema inhibition [1, 5]: 25.32%
paw edema [1, 6]: 43.75±15.39%
paw volume [1, 6]: 2.28±0.12
edema inhibition [1, 6]: 29.85%
paw edema [1, 7]: 30.74±10.87%
paw volume [1, 7]: 2.08±0.15
edema inhibition [1, 7]: 40.61%
paw edema [1, 8]: 23.41±9.18%
paw volume [1, 8]: 1.97±0.12
edema inhibition [1, 8]: 40.46%

CC(C)=CCCC(C)(OC1OC(CO)C(O)C(O)C1O)C1CCC2(C)C1C(O)CC1C3(C)CCC(O)C(C)(C)C3CCC12C [Form IV, 20-O-β-D-glucopyranosyl-20(S)-protopanaxadiol]
Fabs (absolute bioavailability) ([2]; female rats): 4.07%
Tmax [2, 9]: 3.00 h
t1/2z [2, 9]: 3.63 h and 3.00 h and 2.43 h
AUC(0–t) [2, 10]: 1312.0 ± 471.95 ng·h/mL
AUC(0–∞) [2, 10]: 1320.17 ± 471.22 ng·h/mL and 1320.2 ± 471.22 ng·h/mL
CLz/F [2, 10]: 274.5 ± 94.5 mL/min/kg and 275 ± 94.5 mL/min/kg
Cmax [2, 10]: 218.75 ± 111.66 ng/mL and 218.8 ± 111.7 ng/mL
Tmax [2, 10]: 2.3 ± 0.58 h
Vz/F [2, 10]: 73.61 ± 37.67 L/kg and 73.6 ± 37.7 L/kg
t1/2z [2, 10]: 3.02 ± 0.60 h and 3.0 ± 0.60 h
Tmax ([2]; female, Sprague-Dawley, rat, plasma, po, female rats, p.o. 20 mg/kg, mean ± SD (n = 3), read-out: Tmax): 2.33 ± 0.58 h
Fabs (absolute bioavailability) ([2]; male rats): 2.59%
Vz/F ([2]; male rats, p.o. 20 mg/kg, individual rats 1-3): 162.18 L/kg and 159.92 L/kg and 86.19 L/kg
AUC(0–t) [2, 11]: 758.62 ± 245.16 ng·h/mL
AUC(0–∞) [2, 11]: 784.11 ± 219.63 ng·h/mL
CLz/F [2, 11]: 446.5 ± 115 mL/min/kg and 447 ± 115 mL/min/kg
Cmax [2, 11]: 166.43 ± 87.20 ng/mL and 166.4 ± 87.20 ng/mL
Vz/F [2, 11]: 136.10 ± 43.24 L/kg and 136 ± 43.2 L/kg
t1/2z [2, 11]: 3.48 ± 0.47 h and 3.5 ± 0.47 h
decrease in the bioavailability from form I to form IV ([2]; rats, p.o. 20 mg/kg): 34%
DSC onset of the decomposition endotherm (thermodynamical stability) [3]: 250.2 °C
paw volume ([1]; 10 mg/kg p.o. qd 3 days, 0h (before carrageenan), listed as From IV): 1.60±0.05
paw edema [1, 12]: 63.73±8.98%
paw volume [1, 12]: 2.62±0.13
paw edema [1, 13]: 60.32±7.19%
paw volume [1, 13]: 2.57±0.10
paw edema [1, 14]: 40.95±1.48%
paw volume [1, 14]: 2.26±0.05
edema inhibition [1, 14]: 18.24%
paw edema [1, 15]: 30.95±10.46%
paw volume [1, 15]: 2.09±0.10
edema inhibition [1, 15]: 13.86%
paw volume ([1]; 20 mg/kg p.o. qd 3 days, 0h (before carrageenan), listed as From IV): 1.62±0.05
paw edema [1, 16]: 63.17±8.40%
paw volume [1, 16]: 2.64±0.16
paw edema ([1]; 20 mg/kg p.o. qd 3 days, 4h after carrageenan): 58.6 ± 3.6%
paw edema [1, 17]: 58.65±3.69%
paw volume [1, 17]: 2.57±0.09
paw edema [1, 18]: 39.21±10.18%
paw volume [1, 18]: 2.26±0.13
edema inhibition [1, 18]: 21.72%
paw edema [1, 19]: 31.27±12.96%
paw volume [1, 19]: 2.13±0.15
edema inhibition [1, 19]: 12.98%
paw edema, difference from the model group ([1]; any time point post carrageenan injection): no statistical difference
AUC(0-t) ([4]; female rats): 1818.83 ng·h/mL and 1232.02 ng·h/mL and 885.16 ng·h/mL
AUC(0-∞) ([4]; female rats): 897.84 ng·h/mL and 1828.44 ng·h/mL and 1234.21 ng·h/mL
CLz/F ([4]; female rats): 371.3 mL/min/kg and 182.3 mL/min/kg and 270.2 mL/min/kg
Cmax ([4]; female rats): 122.10 ng/mL and 340.98 ng/mL and 193.16 ng/mL
Vz/F ([4]; female rats): 116.76 L/kg and 47.28 L/kg and 56.79 L/kg
AUC(0-t) ([4]; male rats): 540.26 ng·h/mL and 711.78 ng·h/mL and 1023.81 ng·h/mL
AUC(0-∞) ([4]; male rats): 603.16 ng·h/mL and 720.70 ng·h/mL and 1028.47 ng·h/mL
CLz/F ([4]; male rats): 552.7 mL/min/kg and 462.5 mL/min/kg and 324.2 mL/min/kg
Cmax ([4]; male rats): 115.38 ng/mL and 116.79 ng/mL and 267.12 ng/mL
t1/2z ([4]; male rats): 3.99 h and 3.07 h and 3.39 h
